Measurements as given in PMC8219695 (Nature Communications, 2021).
Several values for one entry are separate records, joined by “and”; a condition that tells them apart may be missing. Equal values may be shown once.

Columns and labels:
mDOR = target: T1, mDOR (Mus musculus, UniProt P32300); assay: CAMYEL BRET antagonism assay at mDOR (inhibition of DPDPE); type: cell-based; settings: for Antagonist activity at the mDOR (raw signal): individual replicates, Supplementary Figure 9B source data
T1 construct: expressed in transfected cells

hDOR = hDOR (Homo sapiens, UniProt P41143); assay: CAMYEL BRET antagonism assay at hDOR (inhibition of DPDPE); type: cell-based; settings: for Antagonist activity at the hDOR (raw signal): individual replicates, Supplementary Figure 9A source data
hMOR = target: T2, hMOR (Homo sapiens, UniProt P35372); assay: cell-based; settings: read-out: Emax hMOR
T2 construct: expressed in transfected cells; plasmid a gift from Dr. Nevin Lambert

mMOR = target: T3, mMOR (Mus musculus, UniProt P42866); assay: BRET-based Nb33 recruitment assay at mMOR; type: cell-based; settings: for Nb33 BRET assay at mMOR, response: single replicates, source data Fig 7a, listed as C11-F-7OH (22)
T3 construct: signal peptide (heterologous, not specified) (N); expressed in transfected cells; pcDNA3.1(+) construct made in house

C57BL/6 mice = assay: Tail-flick dose-response in C57BL/6 mice; type: in vivo, mouse; settings: for mouse tail-flick assay (%MPE): 15 minute time point, individual animals
Procedure: CD1 mice (n = 10), at peak analgesic time point. […] Dose–response curves of 22 (s.c.), in the tail-flick assay was evaluated 15 min post drug administration in WT, C57 mice (n = 8) and MOR KO mice (n = 5). Each point represents mean ± SEM.
(§1) For analgesic dose–response experiments, male CD1 mice (20–32 g), 6–8 weeks were obtained from Charles River Laboratories and male C57BL/6 mice (22–30 g), 8–15 weeks were obtained from Jackson Lab (Bar Harbor, ME) and housed 5 mice per cage in a vivarium following an IACUC-approved protocol. For male C57BL/6 mice temperature was kept constant at 22 ± 2 °C, and relative humidity was maintained at 50 ± 5%. For male CD1 mice (20–32 g) the temperature was in the range of 20–26 °C and relative humidity maintained within the range of 30–70%. Mice were given access to food and tap water ad libitum. All mice used throughout the manuscript were opioid naïve. All mice were maintained on a 12 h light/dark cycle with Purina rodent chow and water available ad libitum and housed in groups of five until testing.
Tail-flick antinociception was determined using the radiant heat tail-flick technique using an Ugo Basile model 37360 instrument as previously described[95],[96]. The intensity was set to achieve a baseline between 2 and 3 s. Baseline latencies were determined before experimental treatments for all mice. Tail-flick antinociception was assessed as an increase in baseline latency, with a maximal 15 s latency to minimize damage to the tail. Data were analyzed as percent maximal effect, % MPE, and was calculated according to the formula: % MPE = [(observed latency – baseline latency)/(maximal latency – baseline latency)] × 100. Compounds were injected s.c. and antinociception was assessed at the peak effect. Mice were tested for analgesia with cumulative subcutaneous doses of the drug until the mouse can withstand the maximal latency. Once the mouse reached the maximal latency, the mouse was no longer given higher doses. […] In vivo experiments were evaluated using GraphPad Prism 8, San Diego, CA as described above.
96-well plate (no. 60050; Perkin Elmer; Waltham, MA, USA). At time zero, the luciferase substrate coelenterazine H (5 μM) was added to each well. Ligands were added after 5 min, then BRET signal was measured 10 min later. BRET measurements were performed using a PHERAstar FS plate reader (BMG Labtech, Cary, NC, USA). The BRET signal was calculated as the ratio of the light emitted by the mVenus […]
Dose–response curves were fit using a three-parameter logistic equation in GraphPad Prism 8 (Graphpad Software, La Jolla, CA, USA).
All experiments were repeated in at least three independent trials each with triplicate determinations.
as §1, with “dose-response” for “dose–response”, “g),6-8” for “g), 6–8”, “20-26” for “20–26”, “30-70%.” for “30–70%.”
For analgesic testing in knockout animals, wild-type, male C57BL/6 mice (22–33 g), 10-12 weeks were purchased from the Jackson Lab (Bar Harbor, ME). These mice were kept at a constant temperature of 22 ± 2 °C, and relative humidity was maintained at 40-50%. Exon-1/Exon-11 MOR-1 KO mice on a C57 background were bred in the Pintar laboratory at Rutgers University. All mice were maintained on a 12- […]

[1] = Log[drug] (M) -5, against EC80 DPDPE
[2] = Log[drug] (M) -6, against EC80 DPDPE
[3] = Log[drug] (M) -7, against EC80 DPDPE
[4] = Log[drug] (M) -8, against EC80 DPDPE
[5] = Log[drug] (M) -9, against EC80 DPDPE
[6] = Log[drug] (M) -10, against EC80 DPDPE
[7] = Log[drug] (M) -11, against EC80 DPDPE
[8] = inhibition of reference agonist DPDPE (EC80)

Chain of hDOR (P41143 whole entry): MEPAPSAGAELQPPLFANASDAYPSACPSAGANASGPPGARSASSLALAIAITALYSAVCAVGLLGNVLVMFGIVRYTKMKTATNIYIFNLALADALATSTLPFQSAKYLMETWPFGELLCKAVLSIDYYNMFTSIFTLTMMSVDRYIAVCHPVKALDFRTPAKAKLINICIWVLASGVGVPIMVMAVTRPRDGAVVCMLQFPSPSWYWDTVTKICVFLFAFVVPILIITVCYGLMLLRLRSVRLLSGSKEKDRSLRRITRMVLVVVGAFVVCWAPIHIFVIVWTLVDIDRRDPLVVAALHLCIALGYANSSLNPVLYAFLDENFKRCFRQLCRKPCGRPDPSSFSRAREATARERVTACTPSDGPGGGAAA
T3 sequence (P42866 whole entry): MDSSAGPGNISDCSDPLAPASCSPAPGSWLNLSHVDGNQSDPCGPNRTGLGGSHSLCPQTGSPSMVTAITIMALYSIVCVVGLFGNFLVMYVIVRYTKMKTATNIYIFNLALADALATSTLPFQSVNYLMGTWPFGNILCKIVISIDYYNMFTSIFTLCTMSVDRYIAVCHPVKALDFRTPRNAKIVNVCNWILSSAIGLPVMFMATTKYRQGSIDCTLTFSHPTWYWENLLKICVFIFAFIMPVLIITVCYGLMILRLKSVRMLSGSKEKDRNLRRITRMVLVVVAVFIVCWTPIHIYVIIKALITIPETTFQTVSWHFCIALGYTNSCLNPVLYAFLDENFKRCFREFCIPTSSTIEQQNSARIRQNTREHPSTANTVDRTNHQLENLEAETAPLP
T1 sequence (P32300 whole entry): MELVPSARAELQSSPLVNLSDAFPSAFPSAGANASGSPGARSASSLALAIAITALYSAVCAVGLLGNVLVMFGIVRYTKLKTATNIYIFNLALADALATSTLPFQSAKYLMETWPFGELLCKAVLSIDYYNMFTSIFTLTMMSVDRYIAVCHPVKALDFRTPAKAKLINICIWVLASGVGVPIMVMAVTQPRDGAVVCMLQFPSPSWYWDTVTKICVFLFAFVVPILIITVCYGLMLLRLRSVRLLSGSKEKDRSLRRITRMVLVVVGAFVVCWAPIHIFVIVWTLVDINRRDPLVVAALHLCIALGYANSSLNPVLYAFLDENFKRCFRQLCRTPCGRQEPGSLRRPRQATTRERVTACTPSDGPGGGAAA
T2 sequence (P35372 whole entry): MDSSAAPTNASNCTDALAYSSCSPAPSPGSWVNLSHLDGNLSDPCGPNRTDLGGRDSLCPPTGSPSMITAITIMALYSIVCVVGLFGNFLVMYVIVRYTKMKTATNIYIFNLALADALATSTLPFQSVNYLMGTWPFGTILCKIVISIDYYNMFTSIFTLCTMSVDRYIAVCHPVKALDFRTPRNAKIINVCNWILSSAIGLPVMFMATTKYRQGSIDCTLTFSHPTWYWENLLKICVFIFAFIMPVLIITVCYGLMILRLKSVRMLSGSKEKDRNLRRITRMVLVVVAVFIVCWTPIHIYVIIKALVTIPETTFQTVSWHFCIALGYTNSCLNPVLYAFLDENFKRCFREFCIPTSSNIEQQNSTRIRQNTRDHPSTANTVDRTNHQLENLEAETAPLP

For `CC[C@@H]1CN2CC[C@@]3(O)C(=Nc4cc(Br)cc(OC)c43)[C@@H]2C[C@@H]1/C(=C\OC)C(=O)OC` [11-Br-7OH (24), 11-Br-7OH], the “Antagonist activity at the mDOR (raw signal)” value (mDOR; [1]) was 0.06399 and 0.06291 and 0.07141 and -0.0292 and -0.02688 and -0.02364 and 0.0237 and 0.00593 and 0.00355, the “Antagonist activity at the mDOR (raw signal)” value (mDOR; [2]) was 0.1505 and 0.1501 and 0.1583 and 0.09131 and 0.07128 and 0.07775 and 0.02237 and 0.03499 and 0.03942 and the “Antagonist activity at the mDOR (raw signal)” value (mDOR; [3]) was 0.2144 and 0.2068 and 0.2165 and 0.1245 and 0.1236 and 0.1249 and 0.06242 and 0.05459 and 0.06232. The “Antagonist activity at the mDOR (raw signal)” value (mDOR; [4]) was 0.2065 and 0.2182 and 0.2145 and 0.1188 and 0.1346 and 0.1274 and 0.05577 and 0.0581 and 0.03338, the “Antagonist activity at the mDOR (raw signal)” value (mDOR; [5]) was 0.2158 and 0.2138 and 0.2085 and 0.1371 and 0.1339 and 0.1253 and 0.04145 and 0.04861 and 0.04624 and the “Antagonist activity at the mDOR (raw signal)” value (mDOR; [6]) was 0.2122 and 0.2205 and 0.2303 and 0.1255 and 0.1229 and 0.131 and 0.04756 and 0.04362 and 0.03388. For the same molecule, the “Antagonist activity at the mDOR (raw signal)” value (mDOR; [7]) was 0.208 and 0.2144 and 0.211 and 0.1321 and 0.1264 and 0.1313 and 0.05075 and 0.03733 and 0.04896, the “antagonism at mDOR” value (mDOR; [8]) was “full inhibition” and the “Antagonist activity at the hDOR (raw signal)” value (hDOR; [1]) was 0.02104 and 0.01573 and 0.009966 and -0.01593 and -0.01928 and -0.02427 and 0.02048 and 0.01948 and 0.01559. For the same molecule, the “Antagonist activity at the hDOR (raw signal)” value (hDOR; [2]) was 0.04515 and 0.04385 and 0.04449 and 0.03157 and 0.04067 and 0.05399 and 0.01786 and 0.03044 and 0.02432, the “Antagonist activity at the hDOR (raw signal)” value (hDOR; [3]) was 0.1057 and 0.11 and 0.09817 and 0.09774 and 0.0895 and 0.09531 and 0.04711 and 0.02047 and 0.02787 and the “Antagonist activity at the hDOR (raw signal)” value (hDOR; [4]) was 0.1076 and 0.1055 and 0.1083 and 0.107 and 0.1014 and 0.09451 and 0.04651 and 0.03638 and 0.03747. For the same molecule, the “Antagonist activity at the hDOR (raw signal)” value (hDOR; [5]) was 0.1047 and 0.1019 and 0.1172 and 0.09234 and 0.1022 and 0.1004 and 0.02352 and 0.04174 and 0.03714, the “Antagonist activity at the hDOR (raw signal)” value (hDOR; [6]) was 0.1014 and 0.1021 and 0.1072 and 0.1078 and 0.1042 and 0.1009 and 0.03392 and 0.02253 and 0.04348 and the “Antagonist activity at the hDOR (raw signal)” value (hDOR; [7]) was 0.122 and 0.117 and 0.1095 and 0.09539 and 0.09115 and 0.09894 and 0.04038 and 0.02714 and 0.0351. The “antagonism at hDOR” value (hDOR; [8]) was “full inhibition”.

`CC[C@@H]1CN2CC[C@@]3(O)C(=Nc4cc(F)cc(OC)c43)[C@@H]2C[C@@H]1/C(=C\OC)C(=O)OC` [11-F-7OH (22), 11-Fluoro-7-hydroxymitragynine] was tested, and the Emax (hMOR) was less than 10%, the “Nb33 BRET assay at mMOR, response” value (mMOR; Log[drug] (M) -5) was 6.583 and -1.77 and -4.813 and -2.626 and -1.32 and 4.487 and 18.3783 and 26.5383 and 5.598 and 5.585 and 0.2094 and 5.293 and the “Nb33 BRET assay at mMOR, response” value (mMOR; Log[drug] (M) -6) was 0.6338 and 14.8405 and 14.4384 and 1.573 and -3.3849 and 2.324 and 3.469 and 13.567 and 11.5483 and 6.799 and 5.845 and 11.4048. The “Nb33 BRET assay at mMOR, response” value (mMOR; Log[drug] (M) -7) was 2.525 and -4.237 and 5.069 and -13.128 and 0.1228 and -1.54 and 7.378 and 4.077 and 0.2648 and 1.54 and -4.687 and 9.074, the “Nb33 BRET assay at mMOR, response” value (mMOR; Log[drug] (M) -8) was 0.2904 and 1.436 and 1.352 and 1.678 and 1.793 and -7.9215 and -6.277 and -6.486 and -0.06826 and 14.2168 and -0.06924 and 8.399 and the “Nb33 BRET assay at mMOR, response” value (mMOR; Log[drug] (M) -9) was -2.727 and 5.58 and 0.2255 and 4.116 and 4.119 and -5.256 and -3.689 and -9.68 and 0.5281 and 3.825 and 2.847 and -6.097. The “Nb33 BRET assay at mMOR, response” value (mMOR; Log[drug] (M) -10) was 3.545 and 0.5186 and 8.52 and 1.379 and 2.542 and 3.339 and 3.8632 and -1.052 and 9.1269 and 14.9582 and 6.739 and 3.3642, the “Nb33 BRET assay at mMOR, response” value (mMOR; Log[drug] (M) -11) was 21.3407 and -2.769 and 15.6698 and -2.476 and 2.836 and -0.3605 and -4.304 and -16.5097 and 20.8133 and -2.923 and -1.5757 and 4.499 and the “Emax mMOR” value (mMOR; Nb33 BRET, relative to DAMGO) was “near the detection limit of the assay”. The Emax (mMOR; read-out: Emax mMOR, Nb33 BRET, relative to DAMGO) was less than 10%, the ED50 (C57BL/6 mice; Mus musculus, sc, 0.25 h, read-out: ED50 (95% CI) tail-flick, s.c., 15 min time point, C57BL/6 mice, n = 10) was 0.18 mg/kg and the “mouse tail-flick assay (%MPE)” value (C57BL/6 mice; dose 0.1, s.c.) was 1.681 %MPE and 10.3175 %MPE and -0.885 %MPE and 20.8955 %MPE and 3.731 %MPE and 1.653 %MPE and 0.813 %MPE and 15.7895 %MPE and 6.383 %MPE and 0 %MPE. For the same molecule, the “mouse tail-flick assay (%MPE)” value (C57BL/6 mice; dose 0.3, s.c.) was 0.8403 %MPE and 3.1746 %MPE and -13.2743 %MPE and 18.6567 %MPE and 7.463 %MPE and 12.3967 %MPE and 9.7561 %MPE and 0 %MPE and 87.9433 %MPE and 12.2137 %MPE, the “mouse tail-flick assay (%MPE)” value (C57BL/6 mice; dose 1, s.c.) was 68.0672 %MPE and 18.254 %MPE and 1.77 %MPE and 24.6269 %MPE and 3.731 %MPE and 5.785 %MPE and 8.943 %MPE and 18.0451 %MPE and 87.234 %MPE and 3.053 %MPE and the “mouse tail-flick assay (%MPE)” value (C57BL/6 mice; dose 3, s.c.) was 18.4874 %MPE and 30.1587 %MPE and 45.1327 %MPE and 31.3433 %MPE and 5.97 %MPE and 7.438 %MPE and 17.8862 %MPE and 23.3083 %MPE and 30.4964 %MPE and 6.87 %MPE. For the same molecule, the “mouse tail-flick assay (%MPE)” value (C57BL/6 mice; dose 10, s.c.) was 6.723 %MPE and 21.4286 %MPE and -9.735 %MPE and 22.3881 %MPE and 14.9254 %MPE and 0 %MPE and 17.0732 %MPE and 28.5714 %MPE and 55.3192 %MPE and 12.9771 %MPE and the “analgesic efficacy (Emax)” value (C57BL/6 mice; mouse, in vivo, sc) was 21%.
